Reference: paper PMC8506967, “Binding specificity and function of the SWI/SNF subunit SMARCA4 bromodomain interaction with acetylated histone H3K14” (The Journal of Biological Chemistry, 2021)
Ends that are not written are not given here.

Experiments:
BAZ2B BD = target: T1, BAZ2B BD (Homo sapiens, UniProt Q9UIF8); assay: ITC, BAZ2B bromodomain; type: binding; conditions: BAZ2B wt, GST +, 293 or 298 K, 10 mM HEPES, 100 mM NaCl, 2.5% glycerol, pH 7.3
T1 sequence (Q9UIF8 2060-2164 limits assumed): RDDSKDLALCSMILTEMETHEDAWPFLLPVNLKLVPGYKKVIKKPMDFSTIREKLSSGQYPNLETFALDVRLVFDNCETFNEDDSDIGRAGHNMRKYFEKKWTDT

four family VIII BD = conditions: cited from earlier work
Description: How SMARCA4 targets, is recruited to, and interacts with chromatin substrates to induce ATP-dependent nucleosome remodeling has been a long-standing question. Recent structures of the SMARCA4 catalytic-core domain in complex with a nucleosome core particle, as well as a nucleosome-bound SWI/SNF complex comprising SMARCA4 and nine auxiliary subunits, provided insights into the mechanism of SWI/SNF remodeling ([25], [26]). But the structural basis underlying SMARCA4 recognition of its histone tail target has remained elusive despite the existence of SMARCA4 structures in the apo state ([1], [27] ...

HsPBRM-1 BD(5) = conditions: PBRM-1 BD(5); cited from earlier work
Description: We superimposed each family VIII BD structure onto the CeSMARCA4-BD structure and plotted the deviation for each residue (Fig. 5D and Fig. S2). […] The overall roo ...

[1] = test system: Saccharomyces cerevisiae Sth1 (ScSth1) BD; conditions: cited from earlier work
Description: How SMARCA4 targets, is recruited to, and interacts with chromatin substrates to induce ATP-dependent nucleosome remodeling has been a long-standing question. Recent structures of the SMARCA4 catalytic-core domain in complex with a nucleosome core particle, as well as a nucleosome-bound SWI/SNF complex comprising SMARCA4 and nine auxiliary subunits, provided insights into the mechanism of SWI/SNF remodeling ([25], [26]). […] Water-mediated hydrogen bonds stabilize the interaction between H3R17 and Tyr1270 on the αC-helix. || We next asked if the SMARCA4-specific residues are also conserved in other family VIII BDs that bind H3K14ac. […] PBRM-1 is an SWI/SNF accessory protein in the PBAF complex that contains six tandem N-terminal BDs ([42]). The second and fourth PBRM-1 BDs (BD(2) and BD(4)) bind H3K14ac ([43], [44]). Due to the low sequence homology outside of the central α A and αB helices ([1]), we aligned the family VIII BDs based on the superposition of their structures and added CeSMARCA4 to the alignm ...

PBRM-1 BD(2) and BD(4) = conditions: cited from earlier work
Description: (§1) We next asked if the SMARCA4-specific residues are also conserved in other family VIII BDs that bind H3K14ac. […] PBRM-1 is an SWI/SNF accessory protein in the PBAF complex that contains six tandem N-terminal BDs ([42]). The second and fourth PBRM-1 BDs (BD(2) and BD(4)) bind H3K14ac ([43], [44]). Due to the low sequence homology outside of the central α A and αB helices ([1]), we aligned the family VIII BDs based on the superposition of their structures and added CeSMARCA4 to the alignm ...

SMARCA2 = conditions: cited from earlier work
Description: as §1

PBRM-1 = conditions: cited from earlier work
Description: as §1

SMARCA4 = conditions: C-terminal BD motif; cited from earlier work
Description: SMARCA4/BRG1 is an essential catalytic core subunit of the roughly two-megadalton Switch/Sucrose Nonfermenting (SWI/SNF) multiprotein complex, which uses the energy of ATP hydrolysis to remodel chromatin by perturbing interactions between histone core particles and DNA ([14], [15]). SMARCA4 can remodel nucleosomal substrates by itself in vitro ([16], [17]) and is functionally and structurally conserved among eukaryotes ([14], [18]).

ASH1L-BD = conditions: cited from earlier work
human BAZ2B bromodomain = target: T2, human BAZ2B bromodomain (human); assay: ITC
T2 chain: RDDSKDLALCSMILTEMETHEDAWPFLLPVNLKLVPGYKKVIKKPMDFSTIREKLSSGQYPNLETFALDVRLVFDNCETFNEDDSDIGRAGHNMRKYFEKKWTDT

[2] = target: T3, CeSMARCA4 BD with the GST tag cleaved off (ITC) (C. elegans, UniProt G5EF53 1179-1289); assay: ITC; MicroCal Auto-iTC200, 293 or 298 K, 10 mM HEPES, 100 mM NaCl, 2.5% glycerol, pH 7.3; protein 50–100 μM in the cell, peptide 500–1000 μM in the syringe; single-site binding model; conditions: both partners purified
T3 construct: SWSN-4 (CeSMARCA4), C. elegans, bromodomain; the Asp1179-Asn1289 construct is the one named for ITC; A protease site and cleavage are described only for the crystallisation construct (K1176-E1296, F1287S); also called CeSMARCA4 bromodomain, GST tag removed; source: E. coli BL21 (DE3), purified, GST tag cleaved off; not shown: GST, N-terminal, cleaved
T3 sequence (looked up): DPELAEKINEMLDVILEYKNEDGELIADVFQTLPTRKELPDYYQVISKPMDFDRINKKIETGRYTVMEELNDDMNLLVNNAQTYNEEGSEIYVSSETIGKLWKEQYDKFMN

[3] = target: T4, CeSMARCA4 GST–BD fusion (C. elegans SMARCA4/SWSN-4 bromodomain, residues D1179–N1289, GST-tagged) (C. elegans, UniProt G5EF53 1179-1289); assay: as above; conditions: both partners purified
T4 construct: SWSN-4 (CeSMARCA4, ortholog of human SMARCA4/BRG1), C. elegans, bromodomain, residues D1179-N1289; Cloned from Bristol N2 cDNA into a pGEX vector; also called GST-CeSMARCA4; CeSMARCA4 BD; source: E. coli BL21 (DE3), purified (Glutathione Sepharose 4B, eluted with reduced glutathione, dialysed); not shown: GST, N-terminal, kept
T4 sequence (looked up): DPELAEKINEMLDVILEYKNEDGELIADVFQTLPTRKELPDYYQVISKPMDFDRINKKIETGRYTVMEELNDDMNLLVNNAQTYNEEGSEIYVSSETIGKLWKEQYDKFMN

[4] = target: T5, CeSMARCA4 BD crystallisation construct (residues Lys1176–Glu1296, Phe1287Ser) (C. elegans, UniProt G5EF53 1176-1296, Phe1287Ser); assay: crystal structure; BD incubated with 2:1 M excess H3_(7–20)K14ac peptide at 4 °C, sitting-drop vapor diffusion, 35% PEG smear; 1.29 Å, space group P4_(1)2_(1)2; conditions: both partners purified
T5 construct: SWSN-4 (CeSMARCA4), C. elegans, bromodomain, residues Lys1176-Glu1296 with the point mutation Phe1287Ser; pGEX-6P-1 vector with an HRV 3C protease site; also called untagged CeSMARCA4 BD; source: E. coli BL21 (DE3), purified (Glutathione Sepharose, PreScission cleavage, Q Sepharose, Sephacryl S-200); not shown: GST, N-terminal, cleaved
T5 sequence (looked up): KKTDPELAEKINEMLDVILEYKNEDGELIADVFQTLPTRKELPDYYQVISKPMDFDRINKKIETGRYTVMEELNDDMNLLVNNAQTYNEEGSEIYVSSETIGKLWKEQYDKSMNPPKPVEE

Work on CC(=O)NCCCC[C@H](NC(=O)CNC(=O)CNC(=O)[C@@H](NC(=O)[C@H](CO)NC(=O)[C@H](CCCCN)NC(=O)[C@H](CCCNC(=N)N)NC(=O)[C@H](C)N)[C@@H](C)O)C(=O)N[C@@H](C)C(=O)N1CCC[C@H]1C(=O)N[C@@H](CCCNC(=N)N)C(=O)N[C@@H](CCCCN)C(=O)N[C@@H](CCC(N)=O)C(=O)N[C@@H](CC(C)C)C(=O)O [H3_7–20K14ac] yielded a Kd (BAZ2B BD) of 12.1 ± 0.2 µM.

In the case of O=C(/C=C/N1C[C@H]2C[C@@H]1CN2c1ccccn1)c1ccccc1O [PFI-3], the “selectivity of chemical probe” value (four family VIII BD) is listed as “selective for four family VIII BD”.

In the case of “H3K14ac: lysine 14 acetylation on histone H3 (ARKSTGGKAPRKQL; not fully specified (residue 8); also: K14 acetylation, chain position not given here)”, the H3K14ac binding (HsPBRM-1 BD(5)) is given as “cannot bind”, the “binding of mutated H3 peptide / acetylated mark to ScSth1 BD” value [1] is given as “binds more promiscuously” and the “selective H3K14ac binding” value [1] is given as “reported to selectivity bind”. The H3K14ac binding (PBRM-1 BD(2) and BD(4)) was “bind”, the “selective H3K14ac binding” value (SMARCA2) was “reported to selectivity bind” and the “selective H3K14ac binding” value (PBRM-1) was “reported to selectivity bind”. The H3K14ac recognition (SMARCA4) was “capable of recognizing” and the H3K14ac binding (ASH1L-BD) was “unable to bind”.

B1: histone H3_(7–20)K14ac peptide (peptide, UniProt P68431 8-21, looked up)
peptide: ARKSTGGK(Ac)APRKQL
notes: histone H3 N-terminal tail, residues 7-20; also called H3K14ac peptide
With B1 the Kd (human BAZ2B bromodomain) was 12.1 µM, the Kd [2] was 23.4 ± 0.8 µM and the Kd [3] was 11.6 ± 0.1 µM. B1: binds [4].
